Data from PubChem BioAssay (NCI).
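Dose response: 5 concentrations. Exposure: 48 h. Format: 96-well plates. Endpoint: linear interpolation; highest concentration if not reached. TGI denotes the concentration required for complete inhibition of growth.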

Legend:
Assay in all cases: growth of human tumour cells (NCI), 48 h
OVCAR-5 ovarian = test system: OVCAR-5 ovarian
OVCAR-3 ovarian = test system: OVCAR-3 ovarian
NCI-H226 lung = test system: NCI-H226 lung
HCC-2998 colon = test system: HCC-2998 colon
OVCAR-8 ovarian = test system: OVCAR-8 ovarian
NCI/ADR-RES ovarian = test system: NCI/ADR-RES ovarian
ACHN renal = test system: ACHN renal
SK-MEL-28 melanoma = test system: SK-MEL-28 melanoma
PC-3 prostate = test system: PC-3 prostate
K-562 leukemia = test system: K-562 leukemia

Measured: TGI

O=C1CSCc2sccc21
> 100 µM: OVCAR-5 ovarian | OVCAR-3 ovarian | NCI-H226 lung | HCC-2998 colon | OVCAR-8 ovarian | NCI/ADR-RES ovarian | ACHN renal | SK-MEL-28 melanoma | PC-3 prostate | K-562 leukemia
